Results on two compounds are retold here after article PMC12974487, “Inhibition of FicD-mediated AMPylation and deAMPylation by isoprenoid diphosphates” (Proceedings of the National Academy of Sciences of the …, 2026).

SMILES strings stand for the structures.

The assay concerns the target T1, FicD^L258D (Homo sapiens, UniProt Q9BVA6, L258D).
T1 construct: soluble ER luminal domain (residues 105 to 458) of wild-type human FicD and three mutants; 6xHis-Sumo (N, cleaved yes); made in house; host or cells: Rosetta(DE3) E. coli
T1 sequence (Q9BVA6 105-458 L258D): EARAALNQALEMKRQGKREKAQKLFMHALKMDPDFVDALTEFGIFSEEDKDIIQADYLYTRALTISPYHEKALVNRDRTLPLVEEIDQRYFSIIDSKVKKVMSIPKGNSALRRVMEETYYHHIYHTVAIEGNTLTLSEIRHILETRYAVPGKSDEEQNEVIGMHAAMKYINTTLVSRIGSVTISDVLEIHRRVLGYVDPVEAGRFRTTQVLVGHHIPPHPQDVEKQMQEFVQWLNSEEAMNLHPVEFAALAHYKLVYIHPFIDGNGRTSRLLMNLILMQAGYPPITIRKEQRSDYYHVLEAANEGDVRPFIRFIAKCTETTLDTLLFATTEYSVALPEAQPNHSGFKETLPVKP
The assay can be described thus: MIDAS metabolite screen, FicD^L258D. It is filed as binding. Conditions: cutoff Q < 0.05 and |Log2 corrected fold change| > 2, metabolites 5 µM. The source says:
To identify small-molecule metabolite interactions with FicD, we applied an unbiased high-throughput screening approach known as MIDAS ([44]). Given the high concentrations of protein required for MIDAS screening, we purified the soluble ER luminal domain (residues 105 to 458) of wild-type human FicD and three mutants FicD^E234G, FicD^L258D, and FicD^H363A for screening (Fig. 1A). These mutants were selected based on their well-established biochemical features ([23], [24], [31]). All three are predicted to enhance detection of protein–metabolite interactions (PMIs) relative to FicD^WT through increased affinity for nucleotide substrates (FicD^E234G), improved solubility (FicD^L258D), and loss of catalytic turnover (FicD^H363A) (Fig. 1A). To decrease the potential for nonspecific small-molecule binding, we ensured the purity of our FicD proteins (SI Appendix, Fig. S1 A and B). As reported by other investigators ([24], [31]), we observe an increase in elution volume of the FicD^L258D mutant, consistent with its monomerization (SI Appendix, Fig. S1C).
Out of the 602 naturally occurring human metabolites in the MIDAS library, we applied a significance cutoff (q value < 0.05) to identify 12 PMIs with a Log2 (corrected fold change) of >2 and two PMIs with a Log2 (corrected fold change) <-2 in the FicD^WT screen (Fig. 1B and SI Appendix, Table S2). Hits were additionally triaged based on detection of multiple adducts of the metabolite in a single dataset (FPP and […] in Fig. 1B) and identification of the same metabolites across three or more of the FicD construct screens (Fig. 1C). Three chemical classes passed this initial triage: adenosine nucleotides, isoprenoid diphosphates, and thyroid hormone intermediates (Fig. 1 B and C and SI Appendix, Tables S2–S5).
22°C. Induced cultures were then harvested by centrifugation at 8000G for 15 minutes at 4°C and […]
Bacterial pellets were resuspended in 30-50mL of 50mM Tris pH 7.4/150mM NaCl/10% glycerol with one Roche cOmplete EDTA-Free Protease inhibitor cocktail tablet (cat no. COEDTAF-RO).
Triton-X100 to a final concentration of 0.2%, Chicken-egg lysozyme to a final concentration of 0.4ug/mL, and 2-5uL of Millipore Benzonase Nuclease (cat no. 70664) were added to bacterial suspension prior to sonication at 40-50% amplitude for 1-3 minutes in pulses of 5 seconds on and 30 seconds off on ice with a Sonics VCX 750 Ultrasonicator. Bacterial lysate was then clarified by centrifugation at 30,000 x g for 30 minutes at 4°C.
Clarified lysate was rotated with Qiagen NiNTA agarose beads (cat no. 30210) for 1-2 hours at 4°C. The beads were then transferred to a 15mL conical vial, resuspended in 10-15mL wash buffer (50mM Tris pH 7.4/150mM NaCl/10% glycerol/0.2% Triton-X 100/10mM imidazole), and spun down at 1000G for 1 minute at 4°C, after which the supernatant was aspirated from the beads. This washing step was repeated 2-4 times to rinse bacterial lysate from the beads prior to on-column washing. The beads were then transferred to BioRad Econopac 20mL bed volume column (cat no.
7321010) and washed with 10-15mL of wash buffer (repeated at least three times), 10mL of ATP wash (50mM Tris pH 7.4/300mM KCl/10mM MgCl2/500uM ATP, repeated once), and finally with 10-15mL wash buffer without Triton-X 100 (repeated at least three times). Protein was eluted in 500μL-1mL elution buffer (50mM Tris pH 7.5/150mM NaCl/10% glycerol/0.5% CHAPS). […]

With `CC(C)=CCC/C(C)=C/COP(=O)(O)OP(=O)(O)O` [GPP, geranyl-pyrophosphate], the “MIDAS protein-metabolite interaction (enrichment/depletion)” value is given as “significantly enriched”.

Take `CC(C)=CCC/C(C)=C/CC/C(C)=C/COP(=O)(O)OP(=O)(O)O` [FPP, farnesyl-pyrophosphate]: the “MIDAS protein-metabolite interaction (enrichment/depletion)” value is recorded as “significantly enriched”.
